Laboratory results: PMC11725581, “Developing novel Lin28 inhibitors by computer aided drug design” (Cell Death Discovery, 2025)
Entries after “also recorded” stand apart in the source; their conditions may differ.

How the values were obtained:
TOV-112D cells = experiment: Cell proliferation (Incucyte), TOV-112D; assay type: cell-based; settings: Lin28a/Lin28b-positive
Text: (§1) To further evaluate whether the suppressive effects of Ln268 are specific to Lin28-positive cancer cells, we compared cell growth rates of DuNE (Lin28b-positive line) and Du145 (Lin28b-negative line), both of which are Lin28a-negative. DuNE has the same genomic background with Du145 except for the transduction of the SRRM4 gene. […] Furthermore, Ln268 had no impact on the cell growth of DuNE(KO) cells, in which the Lin28b gene was knocked out by CRISPR (Fig. 5C). […] We also tested several ovarian and endometrial cancer cell lines with different Lin28a and Lin28b expression profiles (Fig. 5E).

ANA3CA cells = experiment: Cell proliferation (Incucyte), ANA3CA; assay type: cell-based; settings: Lin28a/Lin28b-positive
Text: as §1

[1] = tested on: Lin28a-positive IGROV-1 cells; experiment: Cell proliferation (Incucyte), IGROV-1 cells; assay type: cell-based
[2] = tested on: Du145 (Lin28b-negative line); experiment: Cell proliferation (Incucyte), Du145 cells; assay type: cell-based
Text: as §1

Lin28b ZKD = target: T1, Lin28b ZKD (Homo sapiens, UniProt Q6ZN17); experiment: Fluorescence polarization (FP) assay, Lin28b ZKD:pre-let-7d interaction; assay type: binding; settings: FP / EMSA
T1 sequence (Q6ZN17 127-166 limits assumed): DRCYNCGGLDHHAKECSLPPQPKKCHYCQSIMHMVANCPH
Description: We conducted two biochemical assays, FP and EMSA, to validate the predicted compounds. To optimize the FP assays, we performed a series of titrations using: (1) FAM-labeled pre-let-7d RNA probe, (2) Lin28b ZKD protein, and (3) non-labeled pre-let-7 probe as a competitor (Fig. 2A). These assays yielded the optimal concentrations required for the subsequent FP validation assays, namely 10 nM for the pre-let-7d probe and 1 μM for Lin28b ZKD protein. The FP signal from the free probe was set as 0%, while the signal from the probe-ZKD complex in the absence of compounds was set as 100%. C1632 was used as a control Lin28 inhibitor (Fig. 2B). […] Since the docking pocket is almost identical between Lin28a and Lin28b homologs, we repeated the FP assays using Lin28a ZKD (Figure S2).
The fluorescein amidites (FAM)-tagged pre-Let-7d probe with the sequence of […] was purchased from Integrated DNA Technologies (IDT). The probe at the concentrations ranging from 1 nM to 50 uM was incubated with Lin28B (ZKD) or Lin28 (CSD+ZKD) to a final volume of 30 uL at room temperature for 20 min. To read the fluorescence, a TECAN 500 machine was used. Fluorescence polarization was calculated using the following equation:
P=(Fparrallel−Fperpendicular)/(Fparrallel+FperpendicularP)
where P is the fluorescence polarization reading, F parallel is the fluorescence intensity acquired from the parallel excitation plane, and F perpendicular is the fluorescence intensity acquired from the perpendicular direction of the excitation plane. The total fluorescence intensity is estimated using the following equation:
F=Fparallel+2FperpendicularF.
All the raw FP signal data from the TECAN 500 FP results were analyzed using Prism 8.0 (GraphPad, San Diego, CA, USA); normalized curves were plotted and IC50 values were estimated. All FP data were repeated three to five times.
Figure S1. Lin28b ZKD protein was incubated with the indicated compounds at the concentration of 0, 0.1, 0.2, 0.5, 1, 2, 5, 10, 20, 50, 100, and 200uM. FP signals were measured and plotted relative to that from vehicle.

[3] = tested on: DuNE(KO) cells (Lin28b gene knocked out by CRISPR); experiment: Cell proliferation, DuNE(KO) cells; assay type: cell-based; settings: Lin28b knockout, 72 h
Text: as §1

[4] = tested on: Lin28b-mediated SG formation in DuNE cells; experiment: Stress granule (SG) formation induced by ARS, confocal microscopy; assay type: cell-based
Text: To assess whether Lin28 inhibitors can inhibit SG formation in cancer cells, we induced SGs in DuNE cells using ARS. These cells were co-treated with either vehicle, C1632, Ln15, or Ln268 (Fig. 6F). As a positive control, RNase was also included since it is known to prevent Lin28-mediated SG formation. Under vehicle treatment condition, Lin28b was primarily localized within SGs; however, in the presence of Lin28 inhibitors, its subcellular distribution became more diffuse, extending beyond SGs. SG formation involves a dynamic process in which initial smaller granules coalesce to form larger, mature SGs through phase separation (Fig. 6F).
Cells were fixed with 4% paraformaldehyde, treated in 0.25% Triton X-100 for 15 mins, and mounted with DAPI staining mount (Vector Labs; Burlingame, USA). Cell images were captured by confocal microscopy at 63X magnification (Zeiss; Germany).

HEC50 cells = experiment: Cell proliferation (Incucyte), HEC50; assay type: cell-based; settings: Lin28a/Lin28b-negative
Text: as §1

[5] = tested on: Lin28b protein expression in DuNE cells; experiment: Lin28b protein levels by immunoblotting in DuNE cells; assay type: cell-based; settings: 20uM, 72 h
Description: We further tested whether the 13 candidate compounds could penetrate the cell membrane, endure cell-mediated metabolism and excretion, and inhibit Lin28 activities inside cancer cells. […] Since let-7 and Lin28b mutually regulate each other’s expression, increased let-7 expression by Lin28 inhibitors would suppress Lin28b protein levels.
Fig. 3 Validate CADD predicted compounds by cell-based assays. A, B DuNE cells were treated with Lin28b inhibitors for 72 h. Let-7d RNA levels were measured by real-time qPCR (A) and Lin28b protein levels were measured by immunoblotting (B). […] Cell proliferation rates were measured by Incucyte. D Overlay of 1H-15N HSQC spectra for Lin28b-ZKD (black), Lin28b-ZKD + Ln15 (orange), and Lin28b-ZKD + Ln268 (blue). Ligands were added in a 20:1 molar ratio. Approximately 20 residues are seen to shift (from black to orange/blue), with ca. 5 resonances disappearing for Lin28b-ZKD in the presence of Ln268. E Overlay of the 20 NMR models for 2CQF (gray) and 2LI8 (blue) showing the rearrangement of residues 137–160 in going from Lin28b-ZKD alone to the conformation with RNA present. The conformation of Lin28b-ZKD in the presence of the ligands described herein might resemble that of 2LI8, but with a larger conformational spread. All results are presented as the mean ± SD.
Total RNA was extracted by TRIZOL reagent (Invitrogen), treated with deoxyribonuclease and reversely transcribed by random hexamers and superscript II (Invitrogen). Real-time qPCR was performed on the ABI PRISM 7900 HT system (Applied Biosystems) using the FastStart Universal SYBR Green Master mix (Roche) following standard protocol as we reported. All real-time qPCR assays were carried out in triplicates from three independent cDNA syntheses. For immunoblotting assays, whole cell lysis was extracted by a buffer containing 50mM of Tris pH8.0, 150mM of NaCl, 1% NP40, 0.5% sodium deoxycholate, 0.1% SDS and proteinase and phosphatase inhibitors (Roche). Protein lysis separated by SDS-PAGE, transferred to polyvinylidene difluoride membrane, and blotted by specific antibodies.

## O=c1[nH]c(Nc2ccc(F)cc2O)cs1 [Ln268]
TOV-112D cells
  effect on growth of TOV-112D cells: suppressed the growth
ANA3CA cells
  effect on growth of ANA3CA cells: suppressed the growth
[1]
  cell proliferation, IGROV-1: strongly inhibited cell proliferation; also recorded: strong suppressive effects
[2]
  effect on Du145 cell growth and cell morphology: no impact
Lin28b ZKD
  activity in protein-based assays: performed less effectively than Ln15
[3]
  effect on cell growth of DuNE(KO) cells: no impact
[4]
  effect on aggregation of smaller granules (<20 pixels) into larger SGs (>50 pixels): the most suppressive effect
HEC50 cells
  effect on growth of HEC50 cells: no or minimal impacts
[5]
  effect on Lin28b protein expression: suppressed Lin28b protein expression
